{"source": "patent US6979747B2", "about": "“Antioxidants, preparation processes and their uses” (Centre National de la Recherche Scientifique (CNRS), priority 1999, dated 2005)", "key": {"[1]": {"test_system": "MDMs", "experiment": "Cytotoxicity with respect to MDMs (neutral red)", "format": "cell-based, human", "conditions": "MDMs", "description": "These tests are carried out systematically in parallel with the evaluation of the antiviral activity. In view of the oxidation/reduction capacity of the molecules tested, the test with the tetrazolium salt, which measures the activity of mitochondrial dehydrogenases, cannot be used.\nNeutral red (NR) is a vital dye which makes it possible to measure the viability of adherent cells, such as MDMs. 600 μl of culture supernatant are removed and replaced with 400 μl of an NR solution (0.001% m/v in phosphate buffer, PBS, Boehringer Mannheim), filtered at 0.45 μm. The cells were incubated for 1 h at 37° C. and are subsequently washed (2×1 ml of PBS). The cells are then lysed at −20° C. with 200 μl of a 50% ethanol mixture comprising 1% of glacial acetic acid. The OD is measured twice with 100 μl of solution using a spectrophotometer."}, "[2]": {"test_system": "HIV-1/Ba-L", "experiment": "Antiviral activity in human spleen macrophages infected with HIV-1/Ba-L", "format": "cell-based", "conditions": "Human immunodeficiency virus 1, BAL, Macrophage, read-out: concentration that decreases HIV replication by 50%", "description": "The spleen is dissected and sieved and then the mononuclear cells are isolated using a density gradient, on a Ficoll cushion. The monocytes/macrophages are obtained by adherence to the plastic. The monocytes were allowed to differentiate into macrophages for 7 days, at which time they were infected.\nRetroviral replication within this cell population, and thus the effectiveness of a molecule such as I-152, is conditioned partly by the level of cell differentiation. It was therefore important to make sure of the antiviral effectiveness of I-152 in monocytes/macrophages with a degree of maturation which can be different from that of MDMs. We have thus evaluated the antiviral activity of I-152 and its ability to regenerate the intracellular level of GSH in spleen macrophages. In this cell populations, the HIV-1/Ba-L strain also replicates at high […]. […] This is because the concentration of 38 μM decreases HIV replication by 50% in this spleen cell population (table III). […] It should be noted that, in the spleen macrophages, as in the macrophages derived from blood monocytes, infection by HIV leads to a deficiency of GSH (MDM; FIG. 16)."}, "[3]": {"target": "T1, RT of the HIV-1 LAI isolate (Human immunodeficiency virus type 1 group M subtype B, UniProt P03367)", "T1 construct": "The RT is released by lysis of the viral pellet in 20 μl of NTE-Triton; endogenous in cells; host or cells: Virions pelleted by ultracentrifugation from supernatants of infected cell cultures", "experiment": "Acellular test of the enzymatic activity of RT", "format": "biochemical", "conditions": "acellular system", "description": "The viral replication is measured by assaying the RT activity in the culture supernatants according to the technique described by F. Rey et al. (Biochem. Biophys. Res. Comm., 1984, 121, 126-133). The radioactivity incorporated during the extension of the complementary strand of a poly-rA synthetic matrix in the presence of an oligo-dT12-18 primer and of a radiolabeled substrate, [^3H-methyl]thymidine-5′-triphosphate ([^3H]TPP), makes it possible to assay the enzymatic activity of RT. 400 μl of supernatant are ultracentrifuged at 360 000 g for 5 min. The RT is released by lysis of the viral pellet in 20 μl of NTE-Triton (100 mM NaCl, 10 mM Tris, 1 mM EDTA, 0.1% Triton X-100). These 20 μl are subsequently incubated with 40 μl of the following reaction mixture: 62.5 mM Tris, pH 7.8; 25 mM KCl; 6.25 mM MgCl2; 1.25 mM dithiothreitol (DTT); 2.5×10^−3 ODU oligo-dT12-18 and poly-rA, 5.55×10^−3 TBq {^3H]TTP. After one hour at 37° C., the enzymatic reaction is halted and the newly synthesized strands are precipitated for 20 min at 4° C. by the addition of 1 ml of sodium pyrophosphate (NaPP), of 50 μl of yeast DNA (0.1 mg/ml in 5% trichluoroacetic acid (TCA)), and of 4 ml of 20% TCA. The mixture is filtered using a cellulose acetate membrane (Millipore) which retains the radiolabeled poly-dT chains. The filter is washed using 20 ml of 5% TCA and the residual water is removed by addition of 25 μl of 70% ethanol. The filter is dried in an oven for 10 minutes at 80° C. and is then introduced into vials containing 8 ml of liquid scintillant. The β radioactivity is quantified by means of a scintillation counter (Packard Bell). The results are expressed in pM of [^3H]-TMP incorporated/h/ml of supernatant or, more simply, in cpm/h/ml.\nThe I-152 molecule is composed of NAC and MEA, which are capable of inhibiting the activity of RT (A. Bergamini et al., J. Clin. Invest., 1994, 93, 2251-2257). For this reason, the inhibiting capacity of I-152 with respect to the RT activity was measured using an acellular test. This test was carried out according to the protocol described above (§ 3.3.3.1.). In the reaction mixture, only the 20 μl of water are replaced by 20 μl of a concentration of I-152 or of the reference compounds. Heparin, known for inhibiting the activity of RT and of the other DNA polymerases, is used as positive control for inhibition."}, "[4]": {"test_system": "TNF-α", "experiment": "Synthesis of TNF-α in MDMs stimulated with LPS and IFN-γ", "format": "cell-based, human", "conditions": "MDMs stimulated with LPS (1 μg/ml) and IFN-γ (100 IU/ml)", "description": "The synthesis of tumor necrosis factor (TNF-α) was […] in the MDM culture supernatants using the calorimetric kit sold by Cayman.\n(§1) The compound I-152 and its derivatives are prepared extemporaneously by being dissolved in dimethyl sulfoxide (DMSO) at the concentration of 100 mM. They are subsequently stored at −20° C. after having been diluted 10 fold in phosphate buffer (PBS).\nTumor necrosis factor (TNF-α), like the oxygen-comprising or nitrogen-comprising radical components, plays a major role in the apoptotic processes associated with infection the HIV. Furthermore, the radical components can promote the synthesis of this proinflammatory cytokine. For this reason, the effects of I-152 in decreasing the synthesis of TNF-α were thus looked for in MDMs stimulated by a bacterial lipopolysaccharide and interferon (IFN-γ)."}, "[5]": {"test_system": "GSH", "experiment": "Intracellular GSH in MDMs infected with HIV-1/Ba-L", "format": "cell-based, human", "conditions": "MDMs with GSH deficiency after infection with HIV-1/Ba-L", "description": "The intracellular GSH was assayed by means of the assay kit sold by Cayman. This method for assaying glutathione is an adaptation of that described by O. W. Griffith et al. (1980).\nas §1"}}, "data": [{"compound": "CC(=O)N[C@@H](CS)C(=O)NCCSC(C)=O", "note": "[I-152, N-(N-acetyl-L-cysteinyl)-S-acetylcysteamine]", "values": [{"measurement": "cytotoxicity (in words)", "setting": "[1]; 500 μM (10 times the 50% effective dose)", "value": "not cytotoxic"}, {"measurement": "cytotoxicity at antiviral doses (in words)", "setting": "[1]; antiviral doses", "value": "not cytotoxic"}, {"measurement": "EC50", "setting": "[2]", "value": 38, "unit": "µM"}, {"measurement": "inhibiting activity with respect to RT (in words)", "setting": "[3]", "value": "do not exhibit an inhibiting activity"}, {"measurement": "synthesis of TNF-α (in words)", "setting": "[4]", "value": "inhibits the synthesis of TNF-α"}, {"measurement": "regeneration of intracellular GSH level (in words)", "setting": "[5]", "value": "capable of regenerating an abnormally low intracellular level"}]}]}
